# Measured values: patent US20210282401A1, “FUNGICIDAL COMPOUNDS AND MIXTURES FOR FUNGAL CONTROL IN CEREALS” (Dow AgroSciences LLC, priority 2016, published 2021)
# Legend:
# Assay type in all cases: in vivo
# [1] = tested on: Puccinia recondita (PUCCRT); test: Field assessment of brown rust of wheat (PUCCRT), relative AUDPC, 2 field trials; conditions: based on AUDPC
# Excerpt: (§1) Treatments consisting of the compound of Formula I and the fungicide picoxystrobin were applied either using individually or as a two-way mixture with the compound of Formula I. The compound of Formula I was applied with Agnique BP-420 (50% w/w at 0.3% v/v) at 75 and 150 g ai/ha and picoxystrobin (Acanto) was applied at 125 and 200 g ai/ha. The commercial standard used in the studies was Fluxapyroxad (Imtrex) and was applied at 100 g ai/ha.
# Field Assessment of Puccinia recondita (PUCCRT) in Wheat:
# Fungicidal treatment containing the compound of Formula I and picoxystrobin, either individually or as a two mixture, were assessed against brown rust of wheat (PUCCRT) in two separate field trials. In the first trial, fungicidal treatments were applied at B37-39 (protectant, approximately 0% infection at application) growth stage of wheat (TRZAW, MV Vanek variety) under natural infection of brown rust. The treatment was part of an experimental trial designed as a randomized complete block with four replications and a plot of approximately 2×3 m. Fungicidal treatments were applied at a water volume of 200 L/ha, using a backpack plot sprayer with a TEEJET QJ90-2XTT110 015 Nozzle.
# In the second trial, fungicidal treatments containing the compound of Formula I and picoxystrobin, either individually or as a two way mixture, were applied at B33 (curative, approximately 6.6% infection at application) growth stage of wheat (TRZAW, Miradoux variety) under natural infection of brown rust. The treatments were part of an experimental trial designed as a randomized complete block with four replications and a plot of approximately 2×3 m. Fungicidal treatments were applied at a water volume of 200 L/ha, using a backpack plot sprayer with a HARDI MD110-02 Nozzle.
# (§2) Disease severity (percentage of visual diseased foliage on whole plot or leaves) in both field trials was assessed at 5 weeks after application and was recorded following EPPO PP1/26 guideline prescriptions. Area under the disease progress curve (AUDPC) was calculated for each plot in both trials using the sets of recorded severity data. Relative AUDPC (% control based on AUDPC) was calculated as percent of the nontreated control. Final results for the control of brown rust of wheat by the compound of Formula I, picoxystrobin, and mixtures are reported as an average of the relative AUDPC calculated over both field trials. Statistical analysis was done according to ANOVA and Tukey's test (p=0.10).
# [2] = tested on: Puccinia striiformis (PUCCST); test: Field assessment of yellow rust of wheat (PUCCST), relative AUDPC, 2 field trials; conditions: based on AUDPC
# Excerpt: as §1
# Field Assessment of Puccinia striiformis (PUCCST) in Wheat:
# Fungicidal treatments containing the compound of Formula I and picoxystrobin, either individually or as a two way mixture, were assessed against yellow rust of wheat (PUCCST) in two separate field trials. […]
# as §2, with “4-7” for “5”, “yellow” for “brown”, “Statistical analysis was done according to ANOVA and Tukey's test (p=0.10).” left out
# [3] = tested on: Rhynchosporium secalis (RHYNSE); test: Field assessment of scald of barley (RHYNSE), trials 2 and 3, relative AUDPC; conditions: Trial 2, 3, based on AUDPC
# Excerpt: (§3) Field Assessment of Mixtures of the Compound of Formula I and Pyraclostrobin on Rhynchosporium secalis (RHYNSE) in Barley:
# In the remaining trials, treatments consisting of the compound of Formula I and the fungicide pyraclostrobin were applied either using individually or as a two-way mixture with the compound of Formula I. […] Commercial standards used in these studies were SiltraXpro (200 g ai/L prothioconazole+60 g ai/ha bixafen) applied at 260 g ai/ha, and Opera (133 g/L pyraclostrobin+50 g/L epoxiconazole) applied at 220 g ai/ha. All treatments were part of an experimental trial designed as a randomized complete block with four replications.
# (§4) Disease severity (percentage of visual diseased foliage on whole plot or leaves) in both trials was recorded following EPPO PP1/26 guideline prescriptions. Area under the disease progress curve (AUDPC) was calculated for each plot in both trials using the sets of recorded severity data. Relative AUDPC (% control based on AUDPC) was calculated as percent of the nontreated control. Final results for the control of scald of barley by the compound of Formula I, pyraclostrobin and mixtures are reported as an average of the relative AUDPC calculated over both field trials. Statistical analysis was done according to ANOVA and Tukey's test (p=0.10).
# [4] = tested on: Puccinia hordei (PUCCHD); test: Field assessment of rust of barley (PUCCHD), relative AUDPC, 2 field trials; conditions: based on AUDPC
# Excerpt: Treatments consisting of the compound of Formula I and the fungicide pyraclostrobin were applied either using individually or as a two-way mixture with the compound of Formula I. The compound of Formula I was applied with Agnique BP-420 (50% w/w at an active:adjuvant ratio of 1:2) at 75, 100 and 150 g ai/ha and with pyraclostrobin (Comet 200) at 100, 150 and 200 g ai/ha. Commercial standards used in these studies were Proline 275 (275 g ai/L Prothioconazole), applied at 150 g ai/ha, and SiltraXpro (200 g ai/L prothioconazole+60 g ai/ha bixafen), applied at 195 g ai/ha.
# Field Assessment of Mixtures of the Compound of Formula I and Pyraclostrobin on Puccinia Hordie (PUCCHD) in Barley: […]
# Fungicidal treatments containing the compound of Formula I and pyraclostrobin, either individually or as a two-way mixture, were assessed against rust of barley (PUCCHD) in two separate field trials. In both trials, fungicidal treatments were applied at B37-39 growth stages of winter barley (Lomeritt variety) under natural infection of barley rust. All treatments were part of an experimental trial designed as a randomized complete block with four replications.
# as §4, with “in both field trials was” for “in both trials was”, “control of rust of barley” for “control of scald of barley”
# [5] = tested on: Rhynchosporium secalis (RHYNSE); test: Field assessment of scald of barley (RHYNSE), trial 1, relative AUDPC; conditions: Trial 1, based on AUDPC
# Protocol: (§5) Commercial standards used in these studies were Proline 275 (275 g ai/L Prothioconazole), applied at 150 g ai/ha, and SiltraXpro (200 g ai/L prothioconazole+60 g ai/ha bixafen), applied at 195 g ai/ha.
# as §3
# Fungicidal treatments containing the compound of Formula I and fluxapyroxad, either individually or as a two-way mixture, were assessed against scald of barley (RHYNSE) in three field trials. In the first trial, fungicidal treatments were applied at B37-39 growth stages of winter barley (HORVW, Maris Otter variety) under natural infection of barley scald (protectant test, approximately 1% infection on leaf 4 at application). All treatments were part of an experimental trial designed as a randomized complete block with four replications.
# Disease severity (percentage of visual diseased foliage on whole plot or leaves) in the first trial was recorded following EPPO PP1/26 guideline prescriptions. Area under the disease progress curve (AUDPC) was calculated for each plot in the trial using the sets of recorded severity data. Relative AUDPC (% control based on AUDPC) was calculated as percent of the nontreated control. […] Statistical analysis was done according to ANOVA and Tukey's test (p=0.10).
# [6] = tested on: Pyrenophora teres (PYRNTE); test: Field assessment of net blotch of barley (PYRNTE), relative AUDPC; conditions: based on AUDPC
# Excerpt: as §5
# Field Assessment of Mixtures of the Compound of Formula I and Pyraclostrobin on Pyrenophora teres (PYRNTE) in Barley:
# […] […], fungicidal treatments were applied at B31-37 growth stages of winter barley and sprong barley (HORVW, Lomeritt variety; HORVS, Scarlett variety) under natural infection of net blotch (protectant tests, 1% infection on leaf 4 and 10% infection on leaf 6 at application). All treatments were part of an experimental trial designed as a randomized complete block with four replications.
# […] […] Relative AUDPC (% control based on AUDPC) was calculated as percent of the nontreated control. […] Statistical analysis was done according to ANOVA and Tukey's test (p=0.10).
smiles,measurement,setting,value
"CO/C=C(/C(=O)OC)c1ccccc1COc1cccc(C(F)(F)F)n1 [Picoxystrobin, methyl (E)-3-methoxy-2-[2-(6-trifluoromethyl-2-pyridyloxymethyl)phenyl]acrylate]",PUCCRT % Control,[1]; 125 g ai/ha,64.6%
same,PUCCRT % Control,[1]; 200 g ai/ha,81.1%
same,PUCCST % Control,[2]; 125 g ai/ha,34.6%
same,PUCCST % Control,[2]; 200 g ai/ha,43.2%
"COC(=O)N(OC)c1ccccc1COc1ccn(-c2ccc(Cl)cc2)n1 [Pyraclostrobin, methyl N-[2-[[[1-(4-chlorophenyl)-1H-pyrazol-3-yl]oxy]methyl]phenyl]-N-methoxycarbamate]",RHYNSE % Control,[3]; 200 g ai/ha,43.0%
same,PUCCHD % Control,[4]; 100 g ai/ha,63.3%
same,PUCCHD % Control,[4]; 150 g ai/ha,64.4%
same,PUCCHD % Control,[4]; 200 g ai/ha,78.7%
same,RHYNSE % Control,[5]; 100 g ai/ha,41.2%
same,RHYNSE % Control,[5]; 150 g ai/ha,45.0%
same,RHYNSE % Control,[5]; 200 g ai/ha,47.8%
same,PYRNTE % Control,[6]; 100 g ai/ha,46.5%
same,PYRNTE % Control,[6]; 150 g ai/ha,60.5%
same,PYRNTE % Control,[6]; 200 g ai/ha,69.8%
"N#Cc1ccc(Oc2ccc(C(F)(F)C(O)(Cn3ncnc3S)c3ccc(F)cc3F)nc2)cc1 (stereo not drawn) [Compound I, 4-((6-(2-(2,4-difluorophenyl)-1,1-difluoro-2-hydroxy-3-(5-mercapto-1H-1,2,4-triazol-1-yl)propyl)pyridin-3-yl)oxy)benzonitrile]",RHYNSE % Control,[3]; 80 g ai/ha,15.6%
same,RHYNSE % Control,[3]; 125 g ai/ha,38.6%
same,PUCCRT % Control,[1]; 75 g ai/ha,90.7%
same,PUCCRT % Control,[1]; 150 g ai/ha,91.4%
